The test system of experiment [1] is HIV-1HXB2 Env-mediated cell-cell membrane fusion (TZM-bl / HL2/3 cells). The conditions noted are these: read-out: IC50, Env-mediated cell-cell fusion; TZM-bl with HL2/3 cells, 6 h, 37°C, luciferase; three independent experiments. As to the method:
Cell fusion was monitored using a reporter gene assay based on activation of HIV LTR-driven luciferase cassette in TZM-bl (Target) cells by HIV-1 tat from the HL2/3 (Effector) cells. Briefly, the TZM-bl cells were plated in 96-well clusters (2×10^4 per well) and incubated at 37°C overnight. […] Luciferase activity was measured using luciferase assay regents (Promega, Medison, WI) and a Luminescence Counter (Promega) according to the manufacture's instructions. Background luminescence in TZM-bl cells was determined without addition of HL2/3 cells.

The test system of experiment [2] is HIV-1NL4-3 D36S/V38M pseudovirus. The experiment is classed as cell-based. The conditions noted are these: HIV-1NL4-3 D36S/V38M; TZM-bl, 48 h; mean ± SD of three independent experiments.
Procedure: The mutations were created using double-stranded DNA templates and selection of mutants with DpnI. For each mutation, the two primers contained the desired mutation and occupied the same starting and ending positions on opposite strands of the plasmid DNA. DNA synthesis was carried out by PCR in a 50-µL reaction volume using 1 µL of denatured plasmid template (1 ng/µL), 50 pmol of upper and lower primers and 5 U of high-fidelity thermostable polymerase PrimeStar (Takara, Dalian, China). PCR amplification was carried out for one cycle of denaturation at 98°C for 5 min, then 18 cycles of 98°C for 15 s and 68°C for 15 min, followed a final extension at 72°C for 10 min. The amplicons were treated with the restriction enzyme DpnI for 1 h at 37°C. DpnI-resistant molecules, which were rich in the desired mutants, were recovered by transforming Escherichia coli strain-DH5α to antibiotic resistance. The successful mutations were confirmed by sequencing.
(§2) HIV-1 pseudoviruses were generated as described previously [32], [55]–[56]. Briefly, 293T cells (5×10^6 cells in 15 ml of growth medium in a T-75 culture flask) were cotransfected with 10 µg of an Env-expressing plasmid and 20 µg of a backbone plasmid pSG3deltaEnv that encodes Env-defective, luciferase-expressing HIV-1 genome using Lipofectamine 2000 reagent (Invitrogen). Pseudovirus-containing culture supernatants were harvested 48 hours after transfection and filtered by 0.45-mm pore size, and stored at −80°C in 1-ml aliquots until use. The 50% tissue culture infectious dose (TCID50) of a single thawed aliquot of each pseudovirus batch was determined in TZM-bl cells. […] Briefly, the peptides were prepared with ten series dilutions in a 3-fold stepwise manner and mixed with 100 TCID50 viruses and incubated 1 hour at room temperature. The mixture was added to TZM-bl cells (10^4/well) and incubation at 37°C for 48 hours. Luciferase activity was measured using luciferase assay regents (Promega, Medison, WI) and a Luminescence Counter (Promega) according to the manufacture's instructions.
Experiment [3] concerns BJ5.11 pseudovirus (CRF01_AE). The experiment is classed as cell-based, HIV-1. Particulars: BJ5.11, CRF01_AE, R5; TZM-bl, 48 h; triplicate, mean ± SD of at least three independent experiments. The text has this:
(§1) A panel of plasmids encoding HIV-1 Envs were obtained through the AIDS Research and Reference Reagent Program (ARRRP), Division of AIDS, NIAID, NIH, including subtype A Env clones pSVIII-92RW020.5 and 92UG037.8 from Dr. B.H. Hahn; subtype B Env clones SC422661.8, TRO.11 and AC10.0.29 from Drs. D. Montefiori, F. Gao and M. Li, pRHPA4259.7 and pREJO4541.67 from Drs. B.H. Hahn and J.F. Salazar-Gonzalez, and pCAAN5342.A2 from Drs. B.H. Hahn and D.L. Kothe; subtype C Env clones Du172.17 and Du422.1 from Drs. D. Montefiori, F. Gao, S. Abdool Karim and G. Ramjee, CAP45.2.00.G3 from Drs. L. Morris, K. Mlisana and D. Montefiori, ZM197M.PB7 from Drs. B.H. Hahn, Y. Li and J.F. Salazar-Gonzalez, ZM109F.PB4 from Drs. E. Hunter and C. Derdeyn. Six CRF07_BC Env clones (CH064.20, CH070.1, CH091.9, CH110.2, CH119.10 and CH120.6) were generous gifts by Dr. Y. Shao in the Chinese Center for Disease Control and Prevention, Beijing, China. A panel of Env clones derived from subtype B′ (B01, B02, B04, and 43-22), CRF01_AE (SHX335.24, YN192.31, AE01, AE03, GX2010.36, GX11.13, GX2010.36H, BJ5.11), and CRF07_BC (BC02, BC03, BC05, BC07, BC14, SC19-15, BJ22-5, YN148R-9, XJ50-6, HB5-3) were kindly provided by Dr. Y. Wang from the National Institute for the Control of Pharmaceutical and Biological Products, Beijing, China.

Experiment [4] has as its system ZM109F.PB4 pseudovirus (subtype C). Format: cell-based, HIV-1. The conditions noted are these: R5, TZM-bl, 48 h, triplicate, mean ± SD of three independent experiments.
Text: as §1

The test system of experiment [5] is CH070 pseudovirus (CRF07_BC). The experiment is classed as cell-based, HIV-1. Particulars: R5, TZM-bl, 48 h, triplicate, mean ± SD of at least three independent experiments.
Text: as §1

For experiment [6], the system named is AE03 pseudovirus (CRF01_AE). Format: cell-based, HIV-1. The conditions noted are these: R5, TZM-bl, 48 h, triplicate, mean ± SD of at least three independent experiments.
Text: as §1

The subject of experiment [7] is Du172.17 pseudovirus (subtype C). Format: cell-based, HIV-1. Particulars: Du172.17, subtype C, R5; TZM-bl, 48 h; triplicate, mean ± SD of three independent experiments.
Text: as §1

For experiment [8], the system named is CH110 pseudovirus (CRF07_BC). The experiment is classed as cell-based, HIV-1. Particulars: R5, TZM-bl, 48 h, triplicate, mean ± SD of at least three independent experiments.
Text: as §1

The test system of experiment [9] is CH120 pseudovirus (CRF07_BC). The experiment is classed as cell-based, HIV-1. Particulars: R5, TZM-bl, 48 h, triplicate, mean ± SD of at least three independent experiments.
Text: as §1

The test system of experiment [10] is YN192.31 pseudovirus (CRF01_AE). Format: cell-based, HIV-1. The conditions noted are these: YN192.31, CRF01_AE, R5; TZM-bl, 48 h; triplicate, mean ± SD of at least three independent experiments.
Text: as §1

For experiment [11], the system named is B04 pseudovirus (subtype B′). The experiment is classed as cell-based, HIV-1. The conditions noted are these: R5, TZM-bl, 48 h, triplicate, mean ± SD of at least three independent experiments.
Text: as §1

In experiment [12] the test system is B01 pseudovirus (subtype B′). The experiment is classed as cell-based, HIV-1. The conditions noted are these: R5, TZM-bl, 48 h, triplicate, mean ± SD of at least three independent experiments.
Text: as §1

Experiment [13] has as its system SHX335.24 pseudovirus (CRF01_AE). Format: cell-based, HIV-1. The conditions noted are these: SHX335.24, CRF01_AE, R5; TZM-bl, 48 h; triplicate, mean ± SD of at least three independent experiments.
Text: as §1

The subject of experiment [14] is YN148r-9 pseudovirus (CRF07_BC). Format: cell-based, HIV-1. Particulars: YN148r-9, CRF07_BC, R5; TZM-bl, 48 h; triplicate, mean ± SD of at least three independent experiments.
Text: as §1

In experiment [15] the test system is SC422661.8 pseudovirus (subtype B). Format: cell-based, HIV-1. The conditions noted are these: SC422661.8, subtype B, R5; TZM-bl, 48 h; triplicate, mean ± SD of three independent experiments.
Text: as §1

Experiment [16] relates to CAAN5342 pseudovirus (subtype B). The experiment is classed as cell-based, HIV-1. Particulars: R5, TZM-bl, 48 h, triplicate, mean ± SD of three independent experiments.
Text: as §1

Experiment [17] relates to BC03 pseudovirus (CRF07_BC). Format: cell-based, HIV-1. Particulars: R5, TZM-bl, 48 h, triplicate, mean ± SD of at least three independent experiments.
Text: as §1

Experiment [18] relates to BC02 pseudovirus (CRF07_BC). The experiment is classed as cell-based, HIV-1. The conditions noted are these: R5, TZM-bl, 48 h, triplicate, mean ± SD of at least three independent experiments.
Text: as §1

Experiment [19] concerns BC05 pseudovirus (CRF07_BC). Format: cell-based, HIV-1. Particulars: R5, TZM-bl, 48 h, triplicate, mean ± SD of at least three independent experiments.
Text: as §1

For experiment [20], the system named is HIV-1NL4-3 V38A/N42T pseudovirus. The experiment is classed as cell-based.
Procedure: as §2

One may read the IC50 as the concentration that gives 50% inhibition. On to enfuvirtide, for which the IC50 in experiment [1] turned out to be 56.2 nM; in experiment [2], 322 ± 60.3 nM; in [3], 342 ± 132 nM; in experiment [4], 76.4 ± 2.69 nM; in [5], 136 ± 36.4 nM; in experiment [6], 7.8 ± 1.66 nM. The IC50 in experiment [7] came to 11.6 ± 5.29 nM; in experiment [8], 18.6 ± 3.15 nM; in [9] it was 50.4 ± 4.22 nM; in [10], 68.5 ± 3.25 nM; in experiment [11], 7.8 ± 0.43 nM; in experiment [12], 49.5 ± 2.41 nM. Further, the IC50 in [13] stood at 51 ± 7.35 nM; in experiment [14] it was 131 ± 14.7 nM; in [15], 28.2 ± 5.92 nM; in [16], 723 ± 53.5 nM; in experiment [17], 3.46 ± 0.41 nM; in experiment [18], 2.6 ± 0.48 nM. Moreover, the IC50 was 4.39 ± 0.25 nM in [19] and greater than 3000 nM in experiment [20] (HIV-1NL4-3 V38A/N42T, TZM-bl, 48 h, mean ± SD of three independent experiments). The “resistance change with V38A/N42T (in words)” value in experiment [20] (V38A/N42T double mutations) is given as “high-fold resistance changes”.
